# Values quoted from earlier work, collected in patent US20160317442A1, “Nanosomal preparation of the complex formed by quercetin (or another flavonol, flavone or a derivative thereof) and 2-hydroxypropyl-beta-cyclodextrin for intravenous use in cerebral pathological conditions” (priority 2013, published 2016).
# Conditions: aqueous preparations
structure (smiles),measurement,value
O=c1c(O)c(-c2ccc(O)c(O)c2)oc2cc(O)cc(O)c12 [quercetin],detection of quercetin in the brain,not detected
